Paper PMC3914206

Tests used:
Format in all cases: binding
Conditions in all cases: Compound Concentration 10 µM
[1] = target: T1, panel of 442 kinases (Homo sapiens, UniProt O75676)
T1 construct: purchased KINOMEscan
Text: (§1) We assessed the selectivity of members of this scaffold using the KINOMEscan methodology across a near comprehensive panel of 442 kinases [[18,27]].

[2] = target: T2, panel of 442 kinases (Homo sapiens, UniProt P53779)
T2 construct: purchased KINOMEscan
Text: as §1

[3] = target: T3, panel of 442 kinases (Homo sapiens, UniProt Q14680)
T3 construct: purchased KINOMEscan
Text: as §1

[4] = target: T4, panel of 442 kinases (Homo sapiens, UniProt P17612)
T4 construct: purchased KINOMEscan
Text: as §1

T2 sequence (P53779 whole entry): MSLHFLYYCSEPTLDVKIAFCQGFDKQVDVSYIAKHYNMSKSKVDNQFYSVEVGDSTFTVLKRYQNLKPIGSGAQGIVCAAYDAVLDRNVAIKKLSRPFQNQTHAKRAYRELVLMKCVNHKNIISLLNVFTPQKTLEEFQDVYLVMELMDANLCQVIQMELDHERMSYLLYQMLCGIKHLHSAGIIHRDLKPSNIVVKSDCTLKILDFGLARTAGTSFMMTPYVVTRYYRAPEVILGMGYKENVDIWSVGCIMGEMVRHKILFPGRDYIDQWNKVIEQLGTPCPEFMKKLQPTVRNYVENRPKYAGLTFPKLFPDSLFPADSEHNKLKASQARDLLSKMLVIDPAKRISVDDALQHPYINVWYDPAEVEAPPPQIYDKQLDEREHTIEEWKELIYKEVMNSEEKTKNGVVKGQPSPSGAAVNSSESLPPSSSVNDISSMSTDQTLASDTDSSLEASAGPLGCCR
T3 sequence (Q14680 whole entry): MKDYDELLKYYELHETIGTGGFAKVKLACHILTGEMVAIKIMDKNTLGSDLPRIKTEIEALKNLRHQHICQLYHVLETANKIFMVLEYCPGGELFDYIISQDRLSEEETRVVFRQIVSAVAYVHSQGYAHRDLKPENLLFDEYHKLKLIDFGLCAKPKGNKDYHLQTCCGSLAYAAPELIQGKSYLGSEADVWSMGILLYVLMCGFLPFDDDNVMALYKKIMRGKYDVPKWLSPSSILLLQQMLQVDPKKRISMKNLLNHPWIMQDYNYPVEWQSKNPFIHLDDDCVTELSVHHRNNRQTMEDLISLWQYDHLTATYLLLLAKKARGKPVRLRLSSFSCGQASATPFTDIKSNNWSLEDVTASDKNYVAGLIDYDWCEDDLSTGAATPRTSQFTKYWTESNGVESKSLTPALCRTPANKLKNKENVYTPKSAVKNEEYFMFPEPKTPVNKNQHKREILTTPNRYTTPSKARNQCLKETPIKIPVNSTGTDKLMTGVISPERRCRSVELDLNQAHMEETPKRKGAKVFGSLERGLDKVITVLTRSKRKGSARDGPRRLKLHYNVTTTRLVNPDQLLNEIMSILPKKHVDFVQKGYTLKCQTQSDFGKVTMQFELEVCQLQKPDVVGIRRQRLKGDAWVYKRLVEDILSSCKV
T1 sequence (O75676 whole entry): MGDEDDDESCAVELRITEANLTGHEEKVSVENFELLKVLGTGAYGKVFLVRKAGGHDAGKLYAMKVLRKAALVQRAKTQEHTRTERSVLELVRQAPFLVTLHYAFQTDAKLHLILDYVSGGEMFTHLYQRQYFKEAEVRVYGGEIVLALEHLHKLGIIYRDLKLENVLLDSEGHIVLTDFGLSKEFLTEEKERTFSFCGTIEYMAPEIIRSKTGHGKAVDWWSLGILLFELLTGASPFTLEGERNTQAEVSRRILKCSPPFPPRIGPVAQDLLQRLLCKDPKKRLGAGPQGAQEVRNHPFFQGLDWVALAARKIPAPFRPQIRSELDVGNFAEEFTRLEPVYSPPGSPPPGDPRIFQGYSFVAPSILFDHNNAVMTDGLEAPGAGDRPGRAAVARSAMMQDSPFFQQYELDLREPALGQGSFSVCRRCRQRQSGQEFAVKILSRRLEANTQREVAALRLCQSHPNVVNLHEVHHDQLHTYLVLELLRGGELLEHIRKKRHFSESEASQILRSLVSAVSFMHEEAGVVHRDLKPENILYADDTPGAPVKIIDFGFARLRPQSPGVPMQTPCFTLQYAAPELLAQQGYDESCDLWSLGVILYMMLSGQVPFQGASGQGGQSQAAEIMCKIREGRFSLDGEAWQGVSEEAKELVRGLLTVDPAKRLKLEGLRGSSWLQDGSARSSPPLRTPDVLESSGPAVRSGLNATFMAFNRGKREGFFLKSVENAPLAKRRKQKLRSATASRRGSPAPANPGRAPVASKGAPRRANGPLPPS

Structure (SMILES) | KINOMEscan: RPS6KA4(Kin.Dom.2-C-terminal) [1] | KINOMEscan: JNK3 [2] | KINOMEscan: MELK [3] | KINOMEscan: RPS6KA4(Kin.Dom.1-N-terminal) [1] | KINOMEscan: PKAC-alpha [4]
COc1cc(C(=O)N2CCC(N3CCN(C)CC3)CC2)ccc1Nc1ncc2c(n1)N1CCc3cccc(c31)C(=O)N2C [Compound 24] | 0.65 | 43 | 62 |  | 
CCOc1cc(C(=O)N2CCC(N3CCN(C)CC3)CC2)ccc1Nc1ncc2c(n1)N(C1CCCC1)c1ccccc1C(=O)N2C [Compound 26] | 100 | 74 | 100 | 100 | 100
COc1cc(C(=O)N2CCC(N3CCN(C)CC3)CC2)ccc1Nc1ncc2c(n1)N(C1CCCC1)c1ccccc1C(=O)N2C [Compound 25, 11-cyclopentyl-2-((2-methoxy-4-(4-(4-methylpiperazin-1-yl)piperidine-1-carbonyl)phenyl)amino)-5-methyl-5H-benzo[e]pyrimido[5,4-b][1,4]diazepin-6(11H)-one] | 100 | 48 | 100 | 100 | 100
COc1cc(C(=O)N2CCC(N3CCN(C)CC3)CC2)ccc1Nc1ncc2c(n1)N(C)c1ccccc1C(=O)N2C [15 (LRRK2-IN-1)] | 46 | 77 | 100 | 100 | 100
